Source: article PMC5750648, “Study of Statin- and Loratadine-Induced Muscle Pain Mechanisms Using Human Skeletal Muscle Cells” (Pharmaceutics, 2017)
“Also recorded” adds a separate entry of the source. Counter-ions that a name gives are not always drawn. Blank lines part the entries; values can stand above or below the molecule they belong to.

Legend:
[1] = set-up: method as in PMID 16453090; conditions: Primo study; cited from earlier work
[2] = test system: L-lactic acid influx transport in SkMC; test: Kinetic parameters of L-lactic acid influx transport in SkMC; format: cell-based, human
Method: After differentiation, and before the beginning of the transport experiments, cells were washed, and the medium replaced with HEPES (pH 7.4; 1 mL) buffer. Transport assays, including the pre-incubation period in HEPES, were performed at 37 °C. Assay conditions were previously optimized by standard incubations with L-lactic acid (e.g., incubation times). […] Assessment of influx transport. […] The suspension was passed through 27½ G needle 3-times. […] L-lactic acid concentrations.

SkMC = test: Intracellular concentrations of statins and loratadine at the end of inhibition assays (HPLC-UV)
Method: Instruments used consisted of a SpectraSystem P4000 pump, a SpectraSystem AS3000 autosampler, a Finnigan SpectraSystem UV6000 ultraviolet detector and a SpectraSystem SN4000 System Controller from Thermo Electron Corporation (San Jose, CA, USA). An Agilent Zorbax Column, Eclipse XDB-C8, 4.6 mm × 150 mm (Agilent, Santa Clara, CA, USA) was used at a temperature of 40 °C. An isocratic mobile phase contained 10 mM ammonium formate pH 3 and acetonitrile with varying proportions, at a flow rate of 1.0 mL/min. Details for mobile phase proportions, internal standards and monitored UV wavelengths are listed in Supplementary Table S1.
After the final incubation, cells were washed twice with PBS 10% methanol and once with PBS alone. The cells were lysed with methanol containing appropriate internal standards for the compounds of interest, then transferred and centrifuged for 10 min at room temperature. The supernatant was transferred to a culture borosilicate glass tube, evaporated and reconstituted in 100 µL of 10 mM ammonium formate pH 3 and acetonitrile (50:50 v/v). A volume of 20 µL per sample was injected. The ChromQuest Version 4.2.34 software was used for data acquisition.

[3] = test system: MCT-mediated efflux transport of L-lactic acid (MCT1 and 4); test: L-lactic acid efflux inhibition after six-day pretreatment of SkMC; format: cell-based, human; conditions: inhibitor 300 µM
Method: At the beginning of the experiment (t = 0), medium was replaced by HEPES (pH 7.4; 1 mL) buffer to wash cells. […] Then, cells were washed once rapidly with buffer containing the tested inhibitors or vehicle, but without L-lactic acid. […] Culture plates were placed on ice to stop the reaction. Inhibition of L-lactic acid efflux was determined by measuring intracellular [^14C] L-lactic acid concentration.

[4] = test system: MCT-mediated efflux transport of L-lactic acid (MCT1 and 4); test: Inhibition of L-lactic acid efflux in SkMC (intracellular [14C] L-lactic acid accumulation); format: cell-based, human; conditions: for Inhibitory effect on L-lactic acid efflux (in words): 0.25 to 300 µM
Method: Assessment of efflux transport. A similar approach was used to measure efflux transport of L-lactic acid. For these experiments, distribution equilibrium of L-lactic acid was reached by adding MES or HEPES (pH 7.0 or 7.4; 1 mL) containing 6 mM [^14C] L-lactic acid (0.2 µCi/mL). After 10 min (to allow L-lactic acid to reach equilibrium), MES or HEPES buffer containing [^14C] L-lactic acid was replaced by L-lactic acid-free buffer for 2.5 min. Transport was stopped by placing culture plates on ice, rapidly aspirating the media and cells were washed 3-times with ice-cold HEPES buffer. Cellular radioactivity levels were determined as previously described in the Method section (Assessment of influx transport).
At the beginning of the experiment (t = 0), medium was replaced by HEPES (pH 7.4; 1 mL) buffer to wash cells. After removing the wash buffer, cells were loaded with [^14C] L-lactic acid (6 mM, 0.2 µCi/mL) in MES or HEPES buffer (pH 7.0 or pH 7.4). Briefly, following pre-incubation of cells in buffer containing [^14C] L-lactic acid for 10 min (to allow L-lactic acid to reach equilibrium), the buffer was replaced by a buffer containing [^14C] L-lactic acid and the potential inhibitor. This mixture was incubated for an additional 3 min in order to allow diffusion of the inhibitor in the cells without perturbing L-lactic acid equilibrium. Then, cells were washed once rapidly with buffer containing the tested inhibitors or vehicle, but without L-lactic acid. In the final step, the tested inhibitors or vehicle were added to the L-lactic acid-free buffer and incubated for 2.5 min as described previously for the assessment of the efflux transport. Culture plates were placed on ice to stop the reaction. Inhibition of L-lactic acid efflux was determined by measuring intracellular [^14C] L-lactic acid concentration.

Compound: CC(C)c1c(C(=O)Nc2ccccc2)c(-c2ccccc2)c(-c2ccc(F)cc2)n1CC[C@@H](O)C[C@@H](O)CC(=O)O [Atorvastatin]
Rate of patients experiencing muscular discomfort [1]: 14.9%

Km ([2]; pH 7.0): 17 mM | Km ([2]; pH 7.4): 23 mM
Compound: C[C@H](O)C(=O)O [L-lactic acid, L-lactic acid sodium salt]
Vmax of L-lactic acid influx transport ([2]; pH 7.0): 90 nmol/min/mg protein | Vmax of L-lactic acid influx transport ([2]; pH 7.4): 82 nmol/min/mg protein

Effect of pH on intracellular accumulation of the drug (SkMC; SkMC, pH 7.0 compared to pH 7.4): did not affect
Compound: CCOC(=O)N1CCC(=C2c3ccc(Cl)cc3CCc3cccnc32)CC1 [Loratadine]

Compound: CCC(C)(C)C(=O)O[C@H]1C[C@@H](C)C=C2C=C[C@H](C)[C@H](CC[C@@H](O)C[C@@H](O)CC(=O)O)[C@H]21 [Simvastatin hydroxy acid, simvastatin hydroxyl acid ammonium salt]
Intracellular L-Lactic Acid Increase (%) ([3]; no pretreatment (Control), pH 7.4): 65% | Intracellular L-Lactic Acid Increase (%) ([3]; six-day pretreatment 0.033 µM, pH 7.0): 103% | Intracellular L-Lactic Acid Increase (%) ([3]; six-day pretreatment 0.033 µM, pH 7.4): 51% | Intracellular L-Lactic Acid Increase (%) ([3]; six-day pretreatment 0.1 µM, pH 7.0): 31% | Intracellular L-Lactic Acid Increase (%) ([3]; six-day pretreatment 0.1 µM, pH 7.4): 35% | Intracellular lactic acid increase ([4]; SkMC (abstract)): 25–35% | Maximal increase of intracellular L-lactic acid ([4]; SkMC, 300 µM inhibitor): 35% | Inhibitory effect on L-lactic acid efflux (in words) ([4]; SkMC): weak inhibitory potency

Compound: O=C(CCc1ccc(O)cc1)c1c(O)cc(O)cc1O [phloretin]
Maximal intracellular L-lactic acid augmentation ([4]; SkMC, pH 7.0, 1 to 300 µM tested): 2.1 fold | Maximal intracellular L-lactic acid augmentation ([4]; SkMC, pH 7.4, 1 to 300 µM tested): 2.2 fold

Uptake of the drug in SkMC (SkMC): did not have a significant uptake
Compound: CC(C)c1nc(N(C)S(C)(=O)=O)nc(-c2ccc(F)cc2)c1/C=C/[C@@H](O)C[C@@H](O)CC(=O)O [rosuvastatin]
Inhibitory effect on L-lactic acid efflux (in words) ([4]; SkMC): No L-lactic acid efflux inhibition; also recorded: No significant inhibitory effect | Inhibitory effect on L-lactic acid transport (in words) ([4]; SkMC, pH 7.0): no significant inhibitory effect
